These results are taken from US20240043440A1, “COMPOSITIONS AND METHODS OF MODULATING SHORT-CHAIN DEHYDROGENASE ACTIVITY” (CASE WESTERN RESERVE UNIVERSITY, priority 2017, published 2024).

Structures are written as SMILES.

Chain of recombinant 15-PGDH (P15428 whole entry): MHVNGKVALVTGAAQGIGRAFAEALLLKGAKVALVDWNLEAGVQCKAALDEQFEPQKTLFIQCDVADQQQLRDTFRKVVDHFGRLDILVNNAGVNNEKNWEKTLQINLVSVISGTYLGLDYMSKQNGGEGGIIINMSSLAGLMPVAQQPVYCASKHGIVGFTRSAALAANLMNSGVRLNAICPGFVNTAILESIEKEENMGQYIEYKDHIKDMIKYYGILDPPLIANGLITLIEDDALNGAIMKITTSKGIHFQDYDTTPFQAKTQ

System in the first data set: not listed separately
Put plainly: chemical stability of the isolated product. Type of data set: physicochemical. The settings on record: cyclizes completely during 10 days to Examples 6 and 7. From the text: Rather, it cyclized and oxidized as described below.
The desired product 2-(butylsulfinyl)-4-(pyrimidin-5-yl)-6-(thiazol-2-yl)thieno[2,3-b]pyridin-3-amine (Example 5-4) is unstable and cyclizes completely during 10 days to Example 6, (5-(butylsulfinyl)-2-(thiazol-2-yl)-6H-pyrimido[4,5-c]thieno[2,3,4-ij][2,7]naphthyridine) and Example 7, (5-(butylsulfinyl)-2-(thiazol-2-yl)-7H-pyrimido[4,5-c]thieno[2,3,4-ij][2,7]naphthyridine) with Example 6 being the major product. The cyclized products are separable on preparative HPLC: 21.2×250 mm Kinetex 5 μm EVO C18 100 Å reversed phase column using a 2:1 ratio of water to CH3CN with a 10 mL/min flow rate and 100 μL injection volume.
Take `CCCC[S+]([O-])c1sc2nc(-c3nccs3)cc(-c3cncnc3)c2c1N` (centres unmarked) [Example 5-4, 2-(butylsulfinyl)-4-(pyrimidin-5-yl)-6-(thiazol-2-yl)thieno[2,3-b]pyridin-3-amine]: the “stability of the compound” value was “unstable”.

A further data set deals with recombinant 15-PGDH (Homo sapiens (Human), UniProt P15428). Nature of the data set: inhibition of enzymatic activity of recombinant 15-PGDH, in vitro assay. Type of data set: biochemical. Conditions: Enzyme Inhibitor IC50 (nM) at 1 nM 15-PGDH, 1 nM recombinant 15-PGDH. From the text:
This Example provides data on a group of structural analogues of SW033291. Data provided is the IC50 of each compound for inhibiting enzymatic activity of recombinant 15-PGDH in an in vitro assay. Recombinant 15-PGDH is human unless otherwise specified. Additionally, the example provides aqueous solubility data for selected analogues in pH 7 or pH 4 citrate buffer solution.
For the molecule `CCCC[S+]([O-])c1sc2nc(-c3cccnc3)nc(-c3ccccc3)c2c1N` (single isomer, unassigned) [74A, 6-(butylsulfinyl)-4-phenyl-2-(pyridin-3-yl)thieno[2,3-d]pyrimidin-5-amine], the concentration for half-maximal inhibition (IC50) – broadly, the midpoint of a concentration-inhibition curve – turned out to be 0.52 nM.

Take `CCCC[S+]([O-])c1sc2nc(-c3cccnc3)nc(-c3ccccc3)c2c1N` (single isomer, unassigned) [74B, 6-(butylsulfinyl)-4-phenyl-2-(pyridin-3-yl)thieno[2,3-d]pyrimidin-5-amine]: the IC50 was 28 nM.

Still in this data set, the particulars now being: Enzyme Inhibitor IC50 (nM) at 5 nM 15-PGDH, 5 nM recombinant 15-PGDH.
With `CCCC[S+]([O-])c1sc2nc(-c3ccc(OC)nc3)cc(-c3ccccc3)c2c1N` (centres unmarked) [compound 23], the IC50 fell in the range of 4 to 20 nM.

For `CCCC[S+]([O-])c1sc2nc(C3CC3)cc(-c3ccccc3)c2c1N` (centres unmarked) [compound 25], the half-maximal inhibitory concentration (IC50) fell in the range of 4 to 20 nM.

Staying with this data set, now noted: read-out: Enzyme Inhibitor IC50 (nM) at 1 nM 15-PGDH; 1 nM recombinant 15-PGDH.
For `CCCC[S@@+]([O-])c1sc2nc(-c3cccnc3)cc(-c3cnc(C)n3C)c2c1N` [38A], the concentration for half-maximal inhibition (IC50) was 0.76 nM.

Take `CCCC[S@+]([O-])c1sc2nc(-c3cccnc3)cc(-c3cnc(C)n3C)c2c1N` [38B]: the concentration for half-maximal inhibition (IC50) came out at 27 nM.

Consider `CCCC[S@@+]([O-])c1sc2nc(-c3cncnc3)cc(-c3cnc(C)n3C)c2c1N` [39A], for which the IC50 came out at 0.72 nM.

With `CCCC[S@+]([O-])c1sc2nc(-c3cncnc3)cc(-c3cnc(C)n3C)c2c1N` [39B], the IC50 was above 100 nM.

`CCCC[S@@+]([O-])c1sc2nc(-c3cccnc3)cc(-c3ccccc3)c2c1N` [41A]: the IC50 was found to be 0.73 nM.

For `CCCC[S@+]([O-])c1sc2nc(-c3cccnc3)cc(-c3ccccc3)c2c1N` [41B], the IC50 was 27 nM.

As for `CCCC[S@+]([O-])c1sc2nc(-c3cncnc3)cc(-c3ccccc3)c2c1N` [42A], the IC50 turned out to be 30 nM.

For `CCCC[S@@+]([O-])c1sc2nc(-c3cncnc3)cc(-c3ccccc3)c2c1N` [42B], the IC50 is 0.59 nM.

`CCCC[S@@+]([O-])c1sc2nc(-c3cccnc3)cc(-c3cncn3C)c2c1N` [43A]: the IC50 is 0.58 nM.

On to `CCCC[S@+]([O-])c1sc2nc(-c3cccnc3)cc(-c3cncn3C)c2c1N` [43B], for which the IC50 was above 100 nM.

With `CCCC[S@@+]([O-])c1sc2nc(-c3cnn(C)c3)cc(-c3ccccc3)c2c1N` [46A], the IC50 came out at 0.7 nM.

Regarding `CCCC[S@+]([O-])c1sc2nc(-c3cnn(C)c3)cc(-c3ccccc3)c2c1N` [46B], the IC50 is above 100 nM.

As for `CCCC[S@@+]([O-])c1sc2nc(-c3ccncn3)cc(-c3ccccc3)c2c1N` [47A], the IC50 is 0.65 nM.

In the case of `CCCC[S@+]([O-])c1sc2nc(-c3ccncn3)cc(-c3ccccc3)c2c1N` [47B], the IC50 stood at 79 nM.

`CCCC[S@@+]([O-])c1sc2nc(-c3nccs3)cc(-c3cn(C)cn3)c2c1N` [48A]: the IC50 amounted to 0.72 nM.

For `CCCC[S@+]([O-])c1sc2nc(-c3nccs3)cc(-c3cn(C)cn3)c2c1N` [48B], the half-maximal inhibitory concentration (IC50) is above 100 nM.

For the molecule `COCCC[S@@+]([O-])c1sc2nc(-c3cccnc3)cc(-c3cncn3C)c2c1N` [50A], the IC50 was determined as 0.57 nM.

Regarding `COCCC[S@+]([O-])c1sc2nc(-c3cccnc3)cc(-c3cncn3C)c2c1N` [50B], the IC50 is above 100 nM.

As to `CCCC[S@@+]([O-])c1sc2nc(-c3cccnc3)cc(-c3cnc(C4CC4)n3C)c2c1N` [52A, (R)-2-(butylsulfinyl)-4-(2-cylcopropyl-1-methyl-1H-imidazol-5-yl)-6-(pyridine-3-yl)thieno[2,3-b]pyridine-3-amine], the IC50 amounted to 0.75 nM.

For the molecule `CCCC[S@+]([O-])c1sc2nc(-c3cccnc3)cc(-c3nnc(C4CC4)n3C)c2c1N` [52B], the IC50 is above 100 nM.

Take `CCCC[S@@+]([O-])c1sc2nc(-c3cccnc3)cc(-c3cccnc3)c2c1N` [54A]: the IC50 stood at 0.45 nM.

Turning to `CCCC[S@+]([O-])c1sc2nc(-c3cccnc3)cc(-c3cccnc3)c2c1N` [54B], the half-inhibitory concentration (IC50) is above 100 nM.

In the case of `CCCC[S@@+]([O-])c1sc2nc(-c3cccnc3)cc(-c3ccccn3)c2c1N` [58A], the IC50 worked out at 0.55 nM.

As for `CCCC[S@+]([O-])c1sc2nc(-c3cccnc3)cc(-c3ccccn3)c2c1N` [58B], the IC50 turned out to be 0.13 nM.

For the molecule `CCCC[S@@+]([O-])c1sc2nc(-c3cnc(NC)nc3)cc(-c3ccccc3)c2c1N` [60A], the IC50 was determined as 0.5 nM.

As to `CCCC[S@+]([O-])c1sc2nc(-c3cnc(NC)nc3)cc(-c3ccccc3)c2c1N` [60B], the IC50 came out at 41 nM.

Regarding `CCCC[S@@+]([O-])c1sc2nc(-c3cnc(N)nc3)cc(-c3ccc(F)cc3)c2c1N` [61A], the IC50 amounted to 0.44 nM.

For `CCCC[S@+]([O-])c1sc2nc(-c3cnc(N)nc3)cc(-c3ccc(F)cc3)c2c1N` [61B], the IC50 was determined as 24 nM.

As to `CCCC[S@@+]([O-])c1sc2nc(-c3ccc(N)nc3)cc(-c3ccccc3)c2c1N` [62A], the IC50 stood at 0.56 nM.

For `CCCC[S@+]([O-])c1sc2nc(-c3ccc(N)nc3)cc(-c3ccccc3)c2c1N` [62B], the IC50 is 64 nM.

Take `CCCC[S@@+]([O-])c1sc2nc(-c3cnc(N)nc3)cc(-c3ccccc3)c2c1N` [64A]: the IC50 stood at 0.36 nM.

Regarding `CCCC[S@+]([O-])c1sc2nc(-c3cnc(N)nc3)cc(-c3ccccc3)c2c1N` [64B], the IC50 was above 100 nM.

On to `COCCC[S@@+]([O-])c1sc2nc(-c3cnc(N)nc3)cc(-c3ccccc3)c2c1N` [65A], for which the IC50 is 0.59 nM.

Regarding `COCCC[S@+]([O-])c1sc2nc(-c3cnc(N)nc3)cc(-c3ccccc3)c2c1N` [65B], the IC50 was determined as 30 nM.

As to `COCCC[S@@+]([O-])c1sc2nc(-c3cccnc3)cc(-c3ccccc3)c2c1N` [68A], the IC50 was determined as 0.48 nM.

As for `COCCC[S@+]([O-])c1sc2nc(-c3cccnc3)cc(-c3ccccc3)c2c1N` [68B], the IC50 is above 100 nM.

For `COCCC[S@@+]([O-])c1sc2nc(-c3cccnc3)cc(-c3cn(C)cn3)c2c1N` [89A], the IC50 was 0.77 nM.

Consider `COCCC[S@+]([O-])c1sc2nc(-c3cccnc3)cc(-c3cn(C)cn3)c2c1N` [89B], for which the IC50 was determined as 74 nM.

The data set is the same for the next values; noted with them: read-out: Enzyme Inhibitor IC50 (nM) at 5 nM 15-PGDH; 5 nM recombinant 15-PGDH.
As to `CCCC[S@+]([O-])c1sc2nc(-c3nccs3)cc(-c3cn(C)c(C)n3)c2c1N` (stereo in doubt) [compound 3, 2-(butylsulfinyl)-4-(1,2-dimethyl-1H-imidazol-4-yl)-6-(thiazol-2-yl)thieno[2,3-b]pyridin-3-amine], the IC50 was above 500 nM.

In the case of `CCCC[S@@+]([O-])c1sc2nc(-c3nccs3)cc(-c3cn(C)c(C)n3)c2c1N` (stereo in doubt) [compound 4, 2-(butylsulfinyl)-4-(1,2-dimethyl-1H-imidazol-4-yl)-6-(thiazol-2-yl)thieno[2,3-b]pyridin-3-amine], the concentration for half-maximal inhibition (IC50) was 1.4 nM.

As to `CCCC[S+]([O-])c1sc2nc(-c3nccs3)cc(-c3cn(C)c(C)n3)c2c1N` (centres unmarked) [compound 2, 2-(butylsulfinyl)-4-(1,2-dimethyl-1H-imidazol-4-yl)-6-(thiazol-2-yl)thieno[2,3-b]pyridin-3-amine], the IC50 was found to be 2.3 nM.

With `CCCC[S+]([O-])c1sc2nc(-c3nccs3)cc3c2c1Nc1ncncc1-3` (centres unmarked) [compound 6, 5-(butylsulfinyl)-2-(thiazol-2-yl)-6H-pyrimido[4,5-c]thieno[2,3,4-ij][2,7]naphthyridine], the IC50 came out at 86 nM.

With `CCCC[S+]([O-])c1sc2nc(-c3nccs3)cc3c4c(nc1c23)NC=NC=4` (centres unmarked) [compound 7, 5-(butylsulfinyl)-2-(thiazol-2-yl)-7H-pyrimido[4,5-c]thieno[2,3,4-ij][2,7]naphthyridine], the IC50 turned out to be 132 nM.

System in the next data set: not listed separately
Nature of the data set: metabolic stability in mouse liver microsomes. Conditions: LC-MS, FIGS. 2 and 3. Type of data set: in vitro ADME. Here is the method:
The metabolic stability was determined by incubating the compounds at a concentration of 10 μM in the presence of microsomes derived from mouse livers. Compound concentrations were monitored by HPLC/MS over time, and half-lives were calculated from the slope of the best-fit line for Ln[compound] vs time.
Metabolite M8 is a thioamide resulting from oxidative cleavage of the thiazole ring. By contrast, 6 membered ring heteroaryls cannot form this metabolite or the toxic byproducts.
On the technique in general: Liver microsomes are vesicles of endoplasmic reticulum, rich in cytochrome P450 enzymes.
Turning to `CCCC[S+]([O-])c1sc2nc(-c3nccs3)cc(-c3cnc(C)n3C)c2c1N` (centres unmarked) [2-(butylsulfinyl)-4-(1,2-dimethyl-1H-imidazol-5-yl)-6-(thiazol-2-yl)thieno[2,3-b]pyridin-3-amine], the “metabolites formed on incubation with mouse liver microsomes” value was “formation of metabolites derived from oxidation of the thiazole”.

In another data set the test system is IL1-β treated A549 cells. Nature of the data set: induction of PGE2 from IL1-β treated A549 cells. Type of data set: cell-based. Conditions: Homo sapiens; A549 cells stimulated with IL1-β for 24 hours.
Take `CCCC[S+]([O-])c1sc2nc(-c3cnc(N)nc3)cc(-c3ccccc3)c2c1N` (centres unmarked): the EC50 (in general, the concentration giving half of the maximal effect) is below 4 nM.
